Assay [1] relates to 14 Nintedanib-responsive genes. The experiment in a line: Gene set variation analysis (GSVA) of the 14-gene set, INMARK trial, IPF patients. The format is in vivo, human. To be noted: V5 (12 weeks) vs V2, 150 mg b.i.d., p = 1.35E-05, no significant change with Placebo. From the text: (§1) Gene set variance analysis (GSVA): The Bioconductor package Gene Set Variance Analysis version 1.3.2 was applied to score each sample individually for the activity of the 14 genes (LTF, CEACAM6, CTSG, OLFM4, MMP8, CEACAM8, DEFA4, OLR1, SHISA4, ABCA13, EMID1, LMOD1, MPO, and PRTN3). The GSVA function was executed with an expression matrix of the log2 Transcripts Per Million (TPM) with a pseudocount of 0.01 added to each value, the list of 14 genes, and the parameter mx.diff set to true. Statistical differences between the GSVA scores between the different treatment groups were tested using a simple linear model and moderated t-statistics computed by the limma package using an empirical Bayes shrinkage method (Law et al., Genome Biol. 2014 Feb 3;15(2):R29.). Identification of genes altered upon Nintedanib treatment in patients with IPF

Assay [2] relates to protein-coding genes in whole blood. The assay can be described thus: Whole-transcriptome RNA sequencing, differentially expressed genes, INMARK trial, IPF patients. The format is in vivo, human. How it is done:
Blood was sampled into PAXgene RNA tubes (PreAnalytix) and RNA was extracted using the PAXgene Blood RNA kit. Quantity of total RNA was determined by direct absorbance measurement at 260 nm using a spectrophotometer. RNA sequencing libraries were prepared using the Illumina TruSeq Stranded Total RNA Library Prep Kit with Ribo-Zero Globin. Briefly, following removal of ribosomal RNA and globin-encoding mRNA, cleaved RNA fragments were reversely transcribed into first strand cDNA using reverse transcriptase and random primers followed by second strand cDNA synthesis using DNA Polymerase I and RNase H. Strand origin was kept by using Uracil instead of Thymin in the nucleotide mix for […] cDNA synthesis. Following 3′-adenylation and index adapter ligation, cDNA products were purified and enriched by PCR to create the final cDNA library. Library quantity was determined using the Quant-it Pico Green dsDNA reagent and quality was checked by analyzing cDNA fragment size using an Agilent Bioanalyzer 2100 device. Following library dilution to 5 nM, samples were pooled for cluster generation. […]
Quality control: The raw data (single-end read sequences of the captured cDNA fragments) obtained for each sample were assessed for quality using FASTQC v0.11.2. For a successful gene expression analysis of a sample, approximately 50 million reads were required. Reads were mapped to the human reference genome hg38 (GRCh38 Ensembl v. 84) using STAR v2.5.2a. The mapped reads were assessed using RNA-SeQC v1.1.8, whereby mapping statistics (e.g. unique mapping rate, number of detected genes, proportion of reads mapping to protein coding genes) provided the final criteria to decide on usability of the data.
Gene expression intensities were represented as either read counts or TPM values and calculated based on Ensembl v84 gene annotations using subread featureCounts and RSEM version 1.2.31 respectively. Further steps included the use of bamUtil version 1.0.11 and samtools version 1.1 for intermediate calculations such as indexing of bam-files and duplicate read marking. […]

For assay [3], the system named is 14 Nintedanib-responsive genes. The assay can be described thus: Whole blood RNA-sequencing of the 14 genes, SENSCIS trial, SSc-ILD patients. As to conditions: 24 weeks (V70) and, in some instances, 52 weeks (V90), not following Placebo. It is filed as in vivo, human. The procedure: Blood was sampled into PAXgene RNA tubes (PreAnalytix) and RNA was extracted using the PAXgene Blood RNA kit. Quantity of total RNA was determined by direct absorbance measurement at 260 nm using a spectrophotometer. RNA sequencing libraries were prepared using the Illumina TruSeq Stranded Total RNA Library Prep Kit with Ribo-Zero Globin. […] Library quantity was determined using the Quant-it Pico Green dsDNA reagent and quality was checked by analyzing cDNA fragment size using an Agilent Bioanalyzer 2100 device. […]
Normalization factors to scale the samples based on the raw library sizes were calculated using the weighted trimmed mean of M-values (TMM) method using the default parameters of edgeR’s calcNormFactors function (Robinson and Oshlack, Genome Biol. 2010;11(3):R25.). After these pre-processing steps, the log2 counts per million along with associated weights for each observation were then calculated based on the normalized library sizes from the previous step using limma’s voom function (Law et al., Genome Biol. 2014 Feb 3;15(2):R29.). […] Estimates for the mean log2 fold change between follow-up visit at week 12 (wk12) and baseline (bl) in each treatment arm was calculated as
Following identification of the 14 Nintedanib-responsive genes in the INMARK trial in the context of IPF, expression of these genes was assessed in two additional clinical trials. […]

For assay [4], the system named is 14 Nintedanib-responsive genes. The assay can be described thus: GSVA of the 14-gene set, SENSCIS trial, SSc-ILD patients. It is filed as in vivo, human. As to conditions: at both visits (24 and 52 weeks), no significant change with Placebo.
Description: as §1
Following identification of the 14 Nintedanib-responsive genes in the INMARK trial in the context of IPF, expression of these genes was assessed in two additional clinical trials. […] In both of these trials, whole blood samples were prospectively collected and the expression of the 14 said genes was retrospectively analyzed by whole-transcriptome RNA-sequencing. […] Similar effects were observed when the fold changes in expression were calculated in a per-patient fashion (FIG. 8).

The subject of assay [5] is normal human lung fibroblasts. To be noted: in vitro; cited from earlier work.
The subject of assay [6] is lung fibroblasts from patients with IPF. As to conditions: cited from earlier work.
Assay [7] deals with primary human lung fibroblasts from IPF patients. To be noted: cited from earlier work.
The next assay has as its system mouse models of IPF. To be noted: cited from earlier work.
A further assay deals with IPF patients. As to conditions: multiple clinical trials; cited from earlier work.
The conditions of assay [8]: clinical trials (i.a. CAPACITY and ASCEND); cited from earlier work.
The mark [9] stands for this setting: adj. p-value <0.05, baseline vs week 12.

The source of these data is patent US20230135671A1, “USE OF BIOMARKERS IN THE TREATMENT OF FIBROTIC CONDITIONS” (Boehringer Ingelheim International GmbH, priority 2020, published 2023).

SMILES strings stand for the structures.

In the case of `COC(=O)c1ccc2c(c1)NC(=O)/C2=C(\Nc1ccc(N(C)C(=O)CN2CCN(C)CC2)cc1)c1ccccc1` [Nintedanib, 3-Z-[1-(4-(N-((4-methyl-piperazin-1-yl)-methylcarbonyl)-N-methyl-amino)-anilino)-1-phenyl-methylene]-6-methoxycarbonyl-2-indolinone], the “change in GSVA score of the 14-gene set” value in [1] is given as “highly significant reduction”. Moreover, in assay [2] (setting [9]), the “number of significantly changed genes that were downregulated” value is listed as 18 and the “number of significantly changed genes that were upregulated” value was “one”. Moreover, the “number of protein-coding genes with significant differences in expression pre- vs post-treatment” value in assay [2] (adj. p-value <0.05, baseline vs week 12, 150 mg b.i.d.) is given as 19. Also, the “expression of most of the 14 genes” value in assay [3] is “downregulated”. The “change in GSVA score of the 14-gene set” value in assay [4] is “significant reduction”. In assay [5], the “PDGFR-a and-β activation and proliferation of normal human lung fibroblasts” value is “inhibit”. Moreover, in assay [6], the “PDGF-or FGF-2-stimulated migration of lung fibroblasts” value is given as “attenuated”. Besides, in assay [7], the “TGF-β-induced fibroblast to myofibroblast transformation” value was “inhibited”. Besides, in the assay with mouse models of IPF (IPF mouse models), the total lung collagen result is “significant reductions”. In addition, the “lymphocyte and neutrophil counts in the bronchoalveolar lavage fluid” value with mouse models of IPF (two different mouse models of IPF) is on record as “significant reductions”. The “annual loss of lung function” value in the assay on IPF patients is on record as “reduce”.

As to `Cc1ccc(=O)n(-c2ccccc2)c1` [Pirfenidone, 5-methyl-1-phenyl-2(1H)-pyridone], the “decline of the forced vital capacity (FVC) lung function” value in [8] was “efficacy in reducing”.
